“Also recorded” adds a separate entry of the source.
Experiments:
Type in all cases: cell-based
ADAM 17 = molecular target: T1, ADAM 17 (Homo sapiens, UniProt P78536); assay: Whole cell ADAM 17 assay: cleavage of TNF-α-FL by THP-1 cells, capillary electrophoresis; details: for formation of TNF-α-FL cleavage product (ADAM 17 activity): TNF-α-FL substrate, reagent added to the assay
T1 construct: endogenous in cells; host or cells: THP-1 cells (whole, live)
Experimental: A substrate for a cell surface protease, typically an ADAM, or preferably a plurality of substrates for different proteases, each having a distinct detectable label, is added to a live cell suspension in a buffer. Typically, about 1.5×10^5 cells are used in 50 μL medium. […] The cells are washed three times on ice with buffer (lacking the protein and anti-proteases noted below) before use. A suitable buffer consists of 50 mM HEPES (pH 7.2), 150 mM NaCl, 2 mM MgCl2, 0.1% human serum albumin (HSA), with serine and thiol protease inhibitor cocktail (Roche Diagnostics). Depending on the peptide, nonspecific binding may be blocked by addition of a protein selected from human serum albumin (HSA), bovine serum albumin (BSA), casein (CAS), gamma globulins (GG), and fetal bovine serum (FBS).
All component additions are done on ice, and the tubes are then transferred to a temperature controlled water bath for incubation. The assay mixture is incubated at a fixed temperature for a fixed time, e.g., 37° C. for 1 hr. Following incubation, the tubes are removed from the incubator and placed again on ice.
For experiments employing additional reagents, such as a GPCR agonist or a protein kinase C stimulator such as PMA (phorbol myristate acetate), the additional reagent is added at the beginning of the incubation period.
A suitable separation medium consists of 1% PEO in 50 mM HEPES (pH 7.2). […] In a typical separation, detection occurs at 5 mm down from the injection site (cross), an argon-ion laser is used as the excitation source, PMT is typically set at 600V to 900V, and gain is set to 5 μA/V at a frequency of 10 Hz. The 10× objective is used, and the sampling rate is 200/sec. Well volumes are typically 2 μL.
For peak analysis, time normalized peak areas for peptide cleavage products are divided by time normalized fluorescein (or aminomethyl fluorescein) peak areas to arrive at the product/fluorescein normalized area ratios.
A TNF-α peptide fragment, known to be a substrate for ADAM 17, was labeled at the N-terminus with fluorescein. […] After a one-hour incubation, aminomethyl fluorescein was added as an electrophoretic marker, and the reaction supernatant was separated by capillary electrophoresis.

ADAM 10 [1] = assay: Whole cell ADAM 10 assay in HEK-293 cells
Experimental: (§1) For experiments involving GPCR's, adherent cells are plated into 96-well plates at 5×10^4 cells/well and serum starved for 18–24 hr prior to use. A suitable buffer comprises 10 mM HEPES (pH 7.2), 1× HANKS, 0.1% human serum albumin (HSA), and serine/thiol protease inhibitor cocktail (Roche Diagnostics). Cells are washed three times with the HANKS-HEPES buffer, lacking protein and anti-protease, prior to use.
(§2) The products of the assays are conveniently analyzed by capillary electrophoresis on a microfluidic LabCard™ (ACLARA Biosciences, Inc.). Typically, a LabCard™ containing a 64-channel array is used, but no special changes are needed to run the assay on a 96- or 32-channel card, or other configuration.
(§3) The configuration of channels for each separation on a LabCard is shown schematically in FIG. 13. The channel network may be a double-T network as shown or a cross network, i.e. where wells 110 and 114 in the figure are directly opposed. A suitable separation medium consists of 1% PEO in 50 mM HEPES (pH 7.2). In a typical separation, sample is injected from well 110 to well 114 at an injection voltage of 550V for e.g. 35 sec. Separation is carried out from well 104 to well 106 for e.g. 20 sec., with the voltages of 0V, 380V, 800V, and 380V in wells 104, 110, 106, and 114, respectively, resulting in a field strength of 455V/cm. […]

ADAM 10 [2] = assay: Whole cell ADAM 10 assay: cleavage of CD40L-FL by Rat-1 cells with GPCR ligands; details: CD40L-FL substrate
Experimental: as §1, §2, §3

T1 sequence (P78536 215-824): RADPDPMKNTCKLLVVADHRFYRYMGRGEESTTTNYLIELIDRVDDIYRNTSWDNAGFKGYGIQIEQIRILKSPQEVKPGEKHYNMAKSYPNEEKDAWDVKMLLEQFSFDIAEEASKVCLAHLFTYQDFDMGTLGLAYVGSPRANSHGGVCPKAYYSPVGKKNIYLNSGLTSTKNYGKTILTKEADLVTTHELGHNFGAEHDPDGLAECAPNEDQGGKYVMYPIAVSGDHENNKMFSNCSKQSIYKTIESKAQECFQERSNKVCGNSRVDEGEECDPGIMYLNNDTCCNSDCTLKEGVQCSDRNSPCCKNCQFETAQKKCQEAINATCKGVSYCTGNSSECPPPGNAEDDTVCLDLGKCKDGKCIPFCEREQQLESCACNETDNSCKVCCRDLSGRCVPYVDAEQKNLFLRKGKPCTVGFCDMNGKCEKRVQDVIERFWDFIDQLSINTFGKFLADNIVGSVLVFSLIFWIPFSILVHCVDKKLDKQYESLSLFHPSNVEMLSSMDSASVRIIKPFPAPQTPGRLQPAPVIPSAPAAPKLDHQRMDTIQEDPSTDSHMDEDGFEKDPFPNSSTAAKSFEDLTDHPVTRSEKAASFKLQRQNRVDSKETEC

Compound	formation of TNF-α-FL cleavage product (ADAM 17 activity) (ADAM 17)	ADAM 10 activity (ADAM 10 [1])	ADAM 10 activity (amount of CD40L-FL cleavage product) (ADAM 10 [2])	further results
CCCCCCCCCCCCCC(=O)O[C@@H]1[C@@H](C)[C@@]2(O)[C@@H](C=C(CO)C[C@]3(O)C(=O)C(C)=C[C@@H]23)[C@@H]2C(C)(C)[C@]12OC(C)=O [PMA, phorbol myristate acetate]	significantly lower; also recorded: significantly reduced	decline		
endothelin-1: known ligand for GPCRs (CSCSSLMDKECVYFCHLDIIW)			decreased	
lysophosphatidic acid [LPA]			increased	
OC[C@H]1O[C@@](CO)(O[C@H]2O[C@H](CO)[C@@H](O)[C@H](O)[C@H]2O)[C@@H](O)[C@@H]1O [sucrose]				TNF-α-FL cleavage activity on addition of sucrose in the presence of PMA (ADAM 17; 450 mM sucrose with PMA): restored the activity
C[N+](C)(C)CCOC(N)=O [carbachol]		activated		
CNC(=O)[C@H](Cc1c[nH]c2ccccc12)NC(=O)[C@@H](CC(=O)NO)CC(C)C [GM6001]	completely inhibited			
